The target in test [1] is T1, DtabPBP1 (Dendrolimus tabulaeformis, UniProt A0A059PCM8). The test can be described thus: Competitive fluorescence binding assay (displacement of 1-NPN), DtabPBP1. The method, then: (§1) Emission fluorescence spectra were performed on an F-4500 fluorescence Spectrophotometer (Hitachi, Japan) at 25 °C with a 1 cm light path quartz cuvette and 5 nm slits for both excitation and emission. The protein was dissolved in 50 mM Tris–HCl buffer, pH 7.4, while ligands used in the binding assay were added as 1 mM methanol solutions. The fluorescence of the mixture was recorded after 5 min to allow the signal to stabilize.
T1 sequence (A0A059PCM8 entry or part of it): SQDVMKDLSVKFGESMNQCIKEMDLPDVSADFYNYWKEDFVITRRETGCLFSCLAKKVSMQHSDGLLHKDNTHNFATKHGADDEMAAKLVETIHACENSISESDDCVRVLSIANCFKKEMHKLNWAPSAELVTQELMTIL
(§2) To measure the affinity of the fluorescent ligand 1-NPN to DtabPBP1, DtabGOBP1, and DtabGOBP2, a 2 μM solution of the protein in 50 mM Tris–HCl, pH 7.4, was titrated with aliquots of 1 mM 1-NPN dissolved in methanol to a final concentration of 16 μM. The probe was excited at 337 nm, and emission spectra were recorded between 380 and 450 nm. To evaluate the effect of pH on the binding affinity of the three OBPs, we also measured their binding with 1-NPN at a pH range of 4.5–9.0. The displacement of 1-NPN by selected ligands was measured in competitive binding assays using both the protein and 1-NPN at 2 μM. The mixtures were titrated with 1 mM methanol solutions of each competitor over concentration ranges of 2–16 μM. The fluorescence of the mixture was recorded after 5 min. Dissociation constants for 1-NPN and the stoichiometry of binding were obtained from Scatchard plots of the binding data through processing the data with Prism software. For other competitor ligands, the dissociation constants were calculated from the corresponding IC50 values using the equation: Ki = [IC50]/(1 + [1 − NPN]/K1 − NPN), where [1-NPN] is the free concentration of 1-NPN and K1-NPN is the dissociation constant of the protein complex/1-NPN.
(§3) To understand the ligand binding properties of the three OBPs, we prepared the recombinant proteins. Figure S5 reports the expression and purification of them. Then, we performed competitive ligand-binding experiments using well established protocols for other insect OBPs (Ban et al. [2002], [2003b]; Guo et al. [2012]; He et al. [2010]; Zhou et al. [2009]) to investigate the specificity of the binding pocket in the three D. tabulaeformis OBPs. The probe was excited at 337 nm, and emission spectra were recorded between 380 and 450 nm. […] The three proteins DtabPBP1, DtabGOBP1, and DtabGOBP2 bind 1-NPN with dissociation constants 12.5 ± 1.7, 14.4 ± 2.6, and 8.5 ± 0.6, respectively (Fig. 4a).

In test [2] the target is T2, DtabGOBP1 (Dendrolimus tabulaeformis, UniProt A0A059PCQ9). In words: Competitive fluorescence binding assay (displacement of 1-NPN), DtabGOBP1. The following applies: for abnormal fluorescence binding curve (in words): 1-NPN fluorescence on addition of ligand. How it is done:
as §1, §2, §3

In test [3] the target is T3, DtabGOBP2 (Dendrolimus tabulaeformis, UniProt A0A059PCR0). In words: Competitive fluorescence binding assay (displacement of 1-NPN), DtabGOBP2. The method, then:
as §1, §2, §3

In test [4] the target is T2, DtabGOBP1. The test can be described thus: Fluorescence titration of protein with 1-NPN (Scatchard plot), DtabGOBP1. It counts as binding. How it is done:
as §1
(§4) To measure the affinity of the fluorescent ligand 1-NPN to DtabPBP1, DtabGOBP1, and DtabGOBP2, a 2 μM solution of the protein in 50 mM Tris–HCl, pH 7.4, was titrated with aliquots of 1 mM 1-NPN dissolved in methanol to a final concentration of 16 μM. The probe was excited at 337 nm, and emission spectra were recorded between 380 and 450 nm. To evaluate the effect of pH on the binding affinity of the three OBPs, we also measured their binding with 1-NPN at a pH range of 4.5–9.0. The displacement of 1-NPN by selected ligands was measured in competitive binding assays using both the protein and 1-NPN at 2 μM. The mixtures were titrated with 1 mM methanol solutions of each competitor over concentration ranges of 2–16 μM. The fluorescence of the mixture was recorded after 5 min. […]
(§5) To understand the ligand binding properties of the three OBPs, we prepared the recombinant proteins. […] The probe was excited at 337 nm, and emission spectra were recorded between 380 and 450 nm. […]

Test [5] concerns the target T3, DtabGOBP2. The test can be described thus: Fluorescence titration of protein with 1-NPN (Scatchard plot), DtabGOBP2. It counts as binding. The method, then:
as §1, §4, §5

Test [6] addresses T1, DtabPBP1. In words: Fluorescence titration of protein with 1-NPN (Scatchard plot), DtabPBP1. In kind it is binding. The method, then: as §1, §4, §5
Setting [7] is: DtabPBP1, 1-NPN fluorescence at ligand max conc 16, protein and 1-NPN at 2 μM, pH 7.4.
[8] abbreviates: DtabGOBP1, 1-NPN fluorescence at ligand max conc 16, protein and 1-NPN at 2 μM, pH 7.4.
The mark [9] stands for this setting: DtabGOBP2, 1-NPN fluorescence at ligand max conc 16, protein and 1-NPN at 2 μM, pH 7.4.
The mark [10] stands for this setting: 2 μM protein, 50 mM Tris–HCl pH 7.4, Scatchard plot, read-out: dissociation constant (Kd) of 1-NPN.
Where [11] appears, read: pH 4.5–9.0, protein and 1-NPN at 2 μM.
[12] abbreviates: DtabPBP1, 1-NPN fluorescence at ligand max conc 16, protein and 1-NPN at 2 μM, pH 7.4, read-out: %of max±SE.
Setting [13] is: DtabGOBP1, 1-NPN fluorescence at ligand max conc 16, protein and 1-NPN at 2 μM, pH 7.4, read-out: %of max±SE.
Where [14] appears, read: DtabGOBP2, 1-NPN fluorescence at ligand max conc 16, protein and 1-NPN at 2 μM, pH 7.4, read-out: %of max±SE.

These results are taken from article PMC4008786, “Molecular Characterization, Expression Pattern, and Ligand-Binding Property of Three Odorant Binding Protein Genes from Dendrolimus tabulaeformis” (Journal of Chemical Ecology, 2014).

Read-outs that look alike come from different tables or passages of the source.

T2 sequence (A0A059PCQ9 entry or part of it): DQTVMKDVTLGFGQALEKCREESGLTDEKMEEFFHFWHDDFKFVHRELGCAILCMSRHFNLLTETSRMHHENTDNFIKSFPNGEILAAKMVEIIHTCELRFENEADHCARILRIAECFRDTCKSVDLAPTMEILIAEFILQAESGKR
T3 sequence (A0A059PCR0 entry or part of it): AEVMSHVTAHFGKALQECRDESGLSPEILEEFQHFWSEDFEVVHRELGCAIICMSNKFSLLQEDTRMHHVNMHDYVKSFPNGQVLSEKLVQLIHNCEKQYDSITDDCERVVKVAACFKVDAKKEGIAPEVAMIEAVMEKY

With `CC1=CCC2C(C1)C2(C)C` (single isomer, unassigned; (+)) [(+)-3-Carene, (+)-3-carene], the “%of max±SE” value on DtabPBP1 [1] (setting [7]) is on record as 85.3±1.7%; at DtabGOBP1 [2] (setting [8]), “Abnormal”; on DtabGOBP2 [3] (setting [9]), 84.3±0.9%. The “abnormal fluorescence binding curve (in words)” value on DtabGOBP1 [2] (DtabGOBP1) is “increased 1-NPN fluorescence”.

As for `C=C(C)C1CC=C(C)CC1` (single isomer, unassigned; (+)) [(+)-Limonene, (+)-limonene], the results for the “%of max±SE” value on DtabPBP1 [1] (setting [7]), at DtabGOBP1 [2] (setting [8]) and on DtabGOBP2 [3] (setting [9]) were 94.4±0.4%, 78.2±1.1% and 88.0±1.3%, respectively.

Usually Kd stands for a measure of binding affinity in units of concentration. For `c1ccc(Nc2cccc3ccccc23)cc1` [1-NPN], the dissociation constant Kd at DtabGOBP1 [4] (setting [10]) was 14.4 ± 2.6 µM; on DtabGOBP2 [5] (setting [10]), 8.5 ± 0.6 µM; at DtabPBP1 [6] (setting [10]), 12.5 ± 1.7 µM. Further, the “effect of pH on affinity for 1-NPN (in words)” value at DtabGOBP1 [4] (setting [11]), at DtabGOBP2 [5] (setting [11]) and on DtabPBP1 [6] (setting [11]) was “rapid loss of affinity in acidic conditions” in each case.

With `CC1=CCC2CC1C2(C)C` (stereo not drawn) [(-)-α-Pinene, (−)-α-pinene], the “%of max±SE” value came to 85.4±0.4% on DtabPBP1 [1] (setting [7]), 96.4±0.3% at DtabGOBP1 [2] (setting [8]) and 90.8±0.4% on DtabGOBP2 [3] (setting [9]).

As for `C=C1CCC2CC1C2(C)C` (stereo not drawn) [(-)-β-Pinene, (−)-β-pinene], the figures for the “%of max±SE” value at DtabPBP1 [1] (setting [7]), on DtabGOBP1 [2] (setting [8]) and at DtabGOBP2 [3] (setting [9]) were 80.7±0.5%, 82.8±1.0% and 83.2±1.1%, respectively.

In the case of `CC/C=C\CCO` [(Z)-3-Hexen-1-ol, (Z)-3-hexen-1-ol], the activity at 16 µM on DtabPBP1 [1] (pH 7.4, read-out: %of max±SE) came to 94.6 ± 0.2%; on DtabGOBP1 [2] (pH 7.4, read-out: %of max±SE) it was 96.5 ± 1.4%; on DtabGOBP2 [3] (pH 7.4, read-out: %of max±SE) it was 90.8 ± 0.6%.

For `C=C1C2CCC(C2)C1(C)C` (stereo not shown) [Camphene, camphene], the activity at 16 µM was 96.5 ± 0.2% at DtabPBP1 [1] (pH 7.4, read-out: %of max±SE); 96.7 ± 1.2% on DtabGOBP1 [2] (pH 7.4, read-out: %of max±SE); 93.8 ± 0.7% at DtabGOBP2 [3] (pH 7.4, read-out: %of max±SE).

As for `C=CC(C)(O)CCC=C(C)C` (stereo not shown) [Linalool, linalool], the activity at 16 µM at DtabPBP1 [1] (setting [12]) turned out to be 90.4 ± 0.7%; at DtabGOBP1 [2] (setting [13]), 90.4 ± 0.9%; at DtabGOBP2 [3] (setting [14]), 95.2 ± 0.6%.

`CC1=CCC(=C(C)C)CC1` [Terpinolene, terpinolene]: the activity at 16 µM at DtabPBP1 [1] (setting [12]) was 90.3 ± 0.2%; on DtabGOBP1 [2] (setting [13]) it was 100 ± 3.2%; on DtabGOBP2 [3] (setting [14]), 85.3 ± 1.8%.

On to `CCCC/C=C/C=C\CCCCOC(C)=O` [Z5,E7-12:OAc, (5Z,7E)-5,7-dodecadien-1-yl acetate], for which the activity at 16 µM came to 74.7 ± 1% on DtabPBP1 [1] (setting [12]), 67.9 ± 1.1% on DtabGOBP1 [2] (setting [13]) and 66.2 ± 0.3% on DtabGOBP2 [3] (setting [14]).

`CCCC/C=C/C=C\CCCCO` [Z5,E7-12:OH, (5Z,7E)-5,7-dodecadien-1-ol]: the results for the activity at 16 µM on DtabPBP1 [1] (setting [12]), at DtabGOBP1 [2] (setting [13]) and at DtabGOBP2 [3] (setting [14]) were 74.5 ± 0.6%, 81 ± 1% and 65.6 ± 0.8%, respectively.

One may read the Ki as the equilibrium dissociation constant of an inhibitor or competing ligand from its target. On to `CCCC/C=C/C=C\CCCCOC(=O)CC` [Z5,E7-12:OPr, (5Z,7E)-5,7-dodecadien-1-yl propionate], for which the Ki on DtabPBP1 [1] (DtabPBP1) is 3.61 µM; on DtabGOBP1 [2] (DtabGOBP1), 1.9 µM; on DtabGOBP2 [3] (DtabGOBP2), 2.7 µM. For the same compound, the “binding affinity / displacement of 1-NPN (in words)” value on DtabPBP1 [1] (DtabPBP1), on DtabGOBP1 [2] (DtabGOBP1) and on DtabGOBP2 [3] (DtabGOBP2) was “high binding affinities” each time. Moreover, the activity at 16 µM at DtabPBP1 [1] (setting [12]) came out at 44.5 ± 0.6%; on DtabGOBP1 [2] (setting [13]) it was 37.1 ± 0.5%; on DtabGOBP2 [3] (setting [14]), 44.8 ± 0.7%. Besides, the Kd at DtabPBP1 [1] (DtabPBP1, calculated from IC50 of 1-NPN displacement, read-out: KD±SE) was 3.6 ± 0.3 µM; on DtabGOBP1 [2] (DtabGOBP1, calculated from IC50 of 1-NPN displacement, read-out: KD±SE) it was 1.9 ± 0.2 µM; on DtabGOBP2 [3] (DtabGOBP2, calculated from IC50 of 1-NPN displacement, read-out: KD±SE) it was 2.7 ± 0.3 µM.

For `CCCCCC/C=C\CCCCOC(C)=O` [Z5-12:OAc, (Z)-5-dodecenyl acetate], the “%of max±SE” value on DtabPBP1 [1] (setting [7]) and at DtabGOBP1 [2] (setting [8]) was “Abnormal” in each case. Further, at DtabGOBP1 [2] (DtabGOBP1), the “abnormal fluorescence binding curve (in words)” value was “increase in fluorescence at high concentrations”. Moreover, the activity at 16 µM on DtabGOBP2 [3] (setting [14]) came to 66.6 ± 0.7%.

Regarding `CCCCCC/C=C\CCCCO` [Z5-12:OH, (Z)-5-dodecenyl alcohol], the activity at 16 µM on DtabPBP1 [1] (setting [12]) stood at 75.1 ± 0.2%; at DtabGOBP1 [2] (setting [13]), 77.2 ± 0.3%; at DtabGOBP2 [3] (setting [14]) it was 67 ± 0.5%.

Regarding `CC1=CC=C(C(C)C)CC1` [α-Terpinene, α-terpinene], the activity at 16 µM on DtabPBP1 [1] (pH 7.4, read-out: %of max±SE) turned out to be 86.7 ± 0.7%; at DtabGOBP1 [2] (pH 7.4, read-out: %of max±SE), 81.8 ± 1.3%; on DtabGOBP2 [3] (pH 7.4, read-out: %of max±SE), 93.2 ± 0.9%.

Regarding `C=CC(=C)CCC=C(C)C` [β-Myrene, β-myrene], the entries for the “%of max±SE” value on DtabPBP1 [1] (setting [7]), at DtabGOBP1 [2] (setting [8]) and on DtabGOBP2 [3] (setting [9]) were 86.5±0.8%, 67.8±0.8% and 83.3±0.7%, respectively. This compound registered a 1-NPN displaced on DtabGOBP1 [2] (DtabGOBP1, at a max concentration of ligand) of 30%.

`CC1=CCC(C(C)C)=CC1` [γ-Terpinene, γ-terpinene]: the activity at 16 µM on DtabPBP1 [1] (pH 7.4, read-out: %of max±SE) came to 88.1 ± 0.3%; at DtabGOBP1 [2] (pH 7.4, read-out: %of max±SE), 71.8 ± 0.7%; on DtabGOBP2 [3] (pH 7.4, read-out: %of max±SE), 99.3 ± 0.4%. Further, the inhibition at 16 µM on DtabGOBP1 [2] (pH 7.4, read-out: 1-NPN displaced) came to 30%.

As to (+)-α-pinene, the “%of max±SE” value at DtabPBP1 [1] (setting [7]) is 83.9±0.3%; at DtabGOBP1 [2] (setting [8]), 98.3±2.2%; on DtabGOBP2 [3] (setting [9]), 88.8±2.2%.

On to (−)-limonene [(-)-Limonene], for which the “%of max±SE” value on DtabPBP1 [1] (setting [7]) is reported as 93.8±0.6%; on DtabGOBP1 [2] (setting [8]), 80.5±1.1%; on DtabGOBP2 [3] (setting [9]), 94.1±0.8%.
